Test system: Mycobacteria tuberculosis (M. tuberculosis H37Rv and M. tuberculosis Kurono)
Assay: Antibacterial test (agar plate dilution method), minimum inhibitory concentration
Format: cell-based
Settings: Mycobacterium tuberculosis, 7H11 agar medium, about 10^6 CFU/mL inoculum, incubation at 37° C., strains H37Rv and Kurono, read-out: minimum inhibitory concentration against Mycobacteria tuberculosis

| SMILES | MIC [µg/mL] |
| --- | --- |
| O[C@@H]1CN(c2c(F)cc(Cl)cc2F)CC[C@@]1(O)COc1ccc(F)c2nc(Cl)sc12 [Example 135] | ≤ 3.13 |
| O=C1CSCc2c(cccc2OC[C@]2(O)CCN(c3c(F)cc(Cl)cc3F)C[C@H]2O)N1 [Example 66] | ≤ 3.13 |
| CN1Cc2c(cccc2OC[C@]2(O)CCN(c3c(F)cc(Cl)cc3F)C[C@H]2O)NC1=O [Example 41] | ≤ 3.13 |
| O=C1Cc2c(OC[C@]3(O)CCN(c4c(F)cc(Cl)cc4F)C[C@H]3O)ccc(Cl)c2N1 [Example 95] | ≤ 3.13 |
| O=C1Cc2c(OCC3(O)CCN(c4c(F)cc(Cl)cc4F)CC3)ccc(F)c2N1 [Example 145, 4-[[1-(4-chloro-2,6-difluorophenyl)-4-hydroxypiperidin-4-yl]methoxy]-7-fluoro-1,3-dihydroindol-2-one] | ≤ 3.13 |
| O=C1Nc2cccc(OC[C@]3(O)CCN(c4c(F)cc(Cl)cc4F)C[C@H]3O)c2CO1 [Example 141] | ≤ 3.13 |
| O[C@@H]1CN(c2ccc(Cl)cc2F)CC[C@@]1(O)COc1ccc(Cl)c2[nH]ncc12 [Example 47] | ≤ 3.13 |
| O[C@@H]1CN(c2c(F)cc(Cl)cc2F)CC[C@@]1(O)COc1cccc2[nH]ncc12 [Example 28] | ≤ 3.13 |
| Cl.O[C@@H]1CN(c2c(F)cc(Cl)cc2F)CC[C@@]1(O)COc1ccc(F)c2c1CCCN2 [Example 44, (3R,4R)-1-(4-chloro-2,6-difluorophenyl)-4-[(8-fluoro-1,2,3,4-tetrahydroquinolin-5-yl)oxymethyl]piperidine-3,4-diol hydrochloride] | ≤ 3.13 |
| O=c1cnc2c(OC[C@]3(O)CCN(c4ccc(Br)cc4F)C[C@H]3O)cccc2[nH]1 [Example 50] | ≤ 3.13 |
| OC1CCc2c(OC[C@]3(O)CCN(c4c(F)cc(Cl)cc4F)C[C@H]3O)cccc21 (stereo partly drawn) [Example 24, (3R,4R)-1-(4-chloro-2,6-difluorophenyl)-4-[(1-hydroxy-2,3-dihydro-1H-inden-4-yl)oxymethyl]piperidine-3,4-diol] | ≤ 3.13 |
| O=C1Nc2cccc(OC[C@]3(O)CCN(c4ccc(Cl)cc4F)C[C@H]3O)c2CS1 [Example 68] | ≤ 3.13 |
| O=C1NCc2c(OC[C@]3(O)CCN(c4ccc(Br)cc4F)C[C@H]3O)ccc(F)c2N1 [Example 131] | ≤ 3.13 |
| O=c1[nH]c2c(F)ccc(OCC3(O)CCN(c4c(F)cc(Cl)cc4F)CC3)c2s1 [Example 147, 7-[[1-(4-chloro-2,6-difluorophenyl)-4-hydroxypiperidin-4-yl]methoxy]-4-fluoro-3H-1,3-benzothiazol-2-one] | ≤ 3.13 |
| Cn1c(=O)cnc2c(OC[C@]3(O)CCN(c4c(F)cc(Cl)cc4F)C[C@H]3O)cccc21 [Example 53, 1-methyl-5-[[(3R,4R)-1-(4-chloro-2,6-difluorophenyl)-3,4-dihydroxypiperidin-4-yl]methoxy]quinoxalin-2-one] | ≤ 3.13 |
| OC1(COc2cccc3cnccc23)CCN(c2ccc(Cl)cc2F)CC1 [Example 1, 1-(4-chloro-2-fluorophenyl)-4-(isoquinolin-5-yloxymethyl)piperidin-4-ol] | ≤ 3.13 |
| O=C1CCc2c(OC[C@]3(O)CCN(c4c(F)cc(Cl)cc4F)C[C@H]3O)cccc21 [Example 17] | ≤ 3.13 |
| COC(=O)c1cc(Cl)ccc1OC[C@]1(O)CCN(c2c(F)cc(Cl)cc2F)C[C@H]1O [Example 92] | ≤ 3.13 |
| OCc1cc(Cl)ccc1OC[C@]1(O)CCN(c2c(F)cc(Cl)cc2F)C[C@H]1O [Example 98, (3R,4R)-1-(4-chloro-2,6-difluorophenyl)-4-[[4-chloro-2-(hydroxymethyl)phenoxy]methyl]piperidine-3,4-diol] | ≤ 3.13 |
| O=C1COc2c(OC[C@]3(O)CCN(c4c(F)cc(Cl)cc4F)C[C@H]3O)ccc(Cl)c2N1 [Example 111] | ≤ 3.13 |
| O=C1CCc2c(OC[C@]3(O)CCN(c4c(F)cc(Cl)cc4F)C[C@H]3O)ccc(Cl)c21 [Example 90, 7-chloro-4-[[(3R,4R)-1-(4-chloro-2,6-difluorophenyl)-3,4-dihydroxypiperidin-4-yl]methoxy]-2,3-dihydroinden-1-one] | ≤ 3.13 |
| O[C@@H]1CN(c2c(F)cc(Cl)cc2F)CC[C@@]1(O)COc1ccc(Cl)c2[nH]c(=S)ccc12 [Example 108] | ≤ 3.13 |
| Nc1nc2c(Cl)ccc(OC[C@]3(O)CCN(c4c(F)cc(Cl)cc4F)C[C@H]3O)c2s1 [Example 127, (3R,4R)-4-[(2-amino-4-chloro-1,3-benzothiazol-7-yl)oxymethyl]-1-(4-chloro-2,6-difluorophenyl)piperidine-3,4-diol] | ≤ 3.13 |

| SMILES | MIC [µg/mL] |
| --- | --- |
| CNC(=O)c1cc(Cl)ccc1OC[C@]1(O)CCN(c2c(F)cc(Cl)cc2F)C[C@H]1O [Example 101] | ≤ 3.13 |
| CC(=O)Nc1cc(F)ccc1OC[C@]1(O)CCN(c2c(F)cc(Cl)cc2F)C[C@H]1O [Example 62] | ≤ 3.13 |
| O=C1CCCc2c(OCC3(O)CCN(c4c(F)cc(Cl)cc4F)CC3)ccc(Cl)c2N1 [Example 79] | ≤ 3.13 |
| O=c1cnc2cccc(OC[C@]3(O)CCN(c4ccc(Cl)cc4F)C[C@H]3O)c2[nH]1 [Example 51] | ≤ 3.13 |
| O=C1Nc2c(Cl)ccc(OC[C@]3(O)CCN(c4ccc(Cl)cc4F)C[C@H]3O)c2CO1 [Example 133] | ≤ 3.13 |
| Cc1c(OC[C@]2(O)CCN(c3c(F)cc(Cl)cc3F)C[C@H]2O)ccc(Cl)c1NC=O [Example 105] | ≤ 3.13 |
| O=C1CCCc2c(OC[C@]3(O)CCN(c4c(F)cc(Cl)cc4F)C[C@H]3O)ccc(Cl)c2N1 [Example 84] | ≤ 3.13 |
| O[C@@H]1CN(c2c(F)cc(Cl)cc2F)CC[C@@]1(O)COc1ccc(Br)c2ccoc12 [Example 23] | ≤ 3.13 |
| Cc1noc2cccc(OC[C@]3(O)CCN(c4c(F)cc(Cl)cc4F)C[C@H]3O)c12 [Example 32] | ≤ 3.13 |
| O[C@@H]1CN(c2c(F)cc(Cl)cc2F)CC[C@@]1(O)COc1ccc(Cl)c2cccnc12 [Example 6, (3R,4R)-1-(4-chloro-2,6-difluorophenyl)-4-[(5-chloroquinolin-8-yl)oxymethyl]piperidine-3,4-diol] | ≤ 3.13 |
| Cn1c(=O)[nH]c2cccc(OC[C@]3(O)CCN(c4c(F)cc(Cl)cc4F)C[C@H]3O)c21 [Example 11] | ≤ 3.13 |
| O=C1COc2c(OCC3(O)CCN(c4c(F)cc(Cl)cc4F)CC3)ccc(Cl)c2N1 [Example 80] | ≤ 3.13 |
| O=C1CSc2c(cccc2OC[C@]2(O)CCN(c3ccc(Cl)cc3F)C[C@H]2O)N1 [Example 76] | ≤ 3.13 |
| O=c1[nH]c2c(Cl)ccc(OC[C@]3(O)CCN(c4c(F)cc(Cl)cc4F)C[C@H]3O)c2s1 [Example 122] | ≤ 3.13 |
| CC(C)(C)N1Cc2c(OC[C@]3(O)CCN(c4c(F)cc(Cl)cc4F)C[C@H]3O)cccc2C1=O [Example 9] | ≤ 3.13 |
| O[C@@H]1CN(c2c(F)cc(Cl)cc2F)CC[C@@]1(O)COc1ccc(Cl)c2[nH]ccc12 [Example 113] | ≤ 3.13 |
| O[C@@H]1CN(c2c(F)cc(Cl)cc2F)CC[C@@]1(O)COc1cccc2[nH]cnc12 [Example 34] | ≤ 3.13 |
| O=C1COCc2c(cccc2OC[C@]2(O)CCN(c3c(F)cc(Cl)cc3F)C[C@H]2O)N1 [Example 65] | ≤ 3.13 |
| O=C1CCc2c(OC[C@]3(O)CCN(c4ccc(Br)cc4F)C[C@H]3O)ccnc2N1 [Example 71] | ≤ 3.13 |
| NC(=O)Cc1cc(F)ccc1OC[C@]1(O)CCN(c2c(F)cc(Cl)cc2F)C[C@H]1O [Example 117, 2-[5-fluoro-2-[[(3R,4R)-1-(4-chloro-2,6-difluorophenyl)-3,4-dihydroxypiperidin-4-yl]methoxy]phenyl]acetamide] | ≤ 3.13 |
| O=C1Cc2c(OC[C@]3(O)CCN(c4ccc(Br)cc4F)C[C@H]3O)ccc(Cl)c2N1 [Example 120] | ≤ 3.13 |
| O=c1[nH]c2c(F)ccc(OC[C@]3(O)CCN(c4ccc(Br)cc4F)C[C@H]3O)c2s1 [Example 140] | ≤ 3.13 |
| Cn1c(=O)c(=O)[nH]c2c(OC[C@]3(O)CCN(c4c(F)cc(Cl)cc4F)C[C@H]3O)ccc(F)c21 [Example 146] | ≤ 3.13 |
